Results from publication PMC5218480 (PLoS ONE, 2017).

Test system: MV-4-11 cells
Assay: Gene expression microarray analysis (Affymetrix PrimeView) and GSEA
Format: cell-based, human
Set-up: RFU PODN (11730768_x_at) / Fold change /veh PODN (11730768_x_at) / RFU LINC00158 (11744669_a_at) / Fold change /veh LINC00158 (11744669_a_at) / RFU DUSP10 (11751237_a_at) / Fold change /veh DUSP10 (11751237_a_at) / RFU ID3 (11757404_x_at) / Fold change /veh ID3 (11757404_x_at) / RFU PLEKHG5 (11737974_s_at) / Fold change /veh PLEKHG5 (11737974_s_at) / RFU LRRC4B (11730491_at) / Fold change /veh LRRC4B (11730491_at) / RFU GIMAP4 (11747438_a_at) / Fold change /veh GIMAP4 (11747438_a_at) / RFU KRT8 (11758183_x_at) / Fold change /veh KRT8 (11758183_x_at) / RFU CNN1 (11734310_a_at) / Fold change /veh CNN1 (11734310_a_at) / RFU VPS37D (11726825_at) / Fold change /veh VPS37D (11726825_at) / RFU C10orf10 (11716522_x_at) / Fold change /veh C10orf10 (11716522_x_at) / RFU KIR2DL2 /// KIR2DL4 /// KIR2DL5A /// KIR2DL5B /// KIR2DS1 /// KIR2DS2 /// KIR2DS3 /// KIR2DS4 /// KIR3DL3 /// KIR3DL3 /// KIR3DS1 (11738374_at) / Fold change /veh KIR2DL2 /// KIR2DL4 /// KIR2DL5A /// KIR2DL5B /// KIR2DS1 /// KIR2DS2 /// KIR2DS3 /// KIR2DS4 /// KIR3DL3 /// KIR3DL3 /// KIR3DS1 (11738374_at) / RFU C1QL1 (11718748_at) / Fold change /veh C1QL1 (11718748_at) / RFU TMPRSS4 (11747572_a_at) / Fold change /veh TMPRSS4 (11747572_a_at) / RFU HAMP (11756126_x_at) / Fold change /veh HAMP (11756126_x_at) / RFU RNFT2 (11725882_a_at) / Fold change /veh RNFT2 (11725882_a_at) / RFU NR4A2 (11747474_a_at) / Fold change /veh NR4A2 (11747474_a_at) / RFU ABCC12 (11746883_a_at) / Fold change /veh ABCC12 (11746883_a_at) / RFU TMEM136 (11760407_x_at) / Fold change /veh TMEM136 (11760407_x_at) / RFU CLDN22 /// WWC2 (11732394_at) / Fold change /veh CLDN22 /// WWC2 (11732394_at) / RFU HLA-DPB1 (11760878_x_at) / Fold change /veh HLA-DPB1 (11760878_x_at) / RFU SPINT1 (11716480_a_at) / Fold change /veh SPINT1 (11716480_a_at) / RFU GAP43 (11754022_s_at) / Fold change /veh GAP43 (11754022_s_at) / RFU A4GNT (11735810_at) / Fold change /veh A4GNT (11735810_at) / RFU PRB3 (11715151_x_at) / Fold change /veh PRB3 (11715151_x_at) / RFU TUBB4B (11761932_at) / Fold change /veh TUBB4B (11761932_at) / RFU CAPN14 (11732068_a_at) / Fold change /veh CAPN14 (11732068_a_at) / RFU TMCC2 (11721928_a_at) / Fold change /veh TMCC2 (11721928_a_at) / RFU IRGQ (11745062_a_at) / Fold change /veh IRGQ (11745062_a_at) / RFU FAM174B (11720279_a_at) / Fold change /veh FAM174B (11720279_a_at) / RFU TMPRSS4 (11748680_a_at) / Fold change /veh TMPRSS4 (11748680_a_at) / RFU FAM212B (11763350_a_at) / Fold change /veh FAM212B (11763350_a_at) / RFU PLEKHG5 (11743358_a_at) / Fold change /veh PLEKHG5 (11743358_a_at) / RFU ZSCAN30 (11745921_a_at) / Fold change /veh ZSCAN30 (11745921_a_at) / RFU CMKLR1 (11741424_a_at) / Fold change /veh CMKLR1 (11741424_a_at) / RFU LOC101060620 /// MAPK8IP1 (11723275_at) / Fold change /veh LOC101060620 /// MAPK8IP1 (11723275_at) / RFU SPTSSB (11747773_x_at) / Fold change /veh SPTSSB (11747773_x_at) / RFU PRSS12 (11739890_at) / Fold change /veh PRSS12 (11739890_at) / RFU BIN1 (11741810_x_at) / Fold change /veh BIN1 (11741810_x_at) / RFU WNT11 (11732464_a_at) / Fold change /veh WNT11 (11732464_a_at) / RFU C10orf10 (11716521_a_at) / Fold change /veh C10orf10 (11716521_a_at) / RFU C5orf56 (11738089_at) / Fold change /veh C5orf56 (11738089_at) / RFU CYB561 (11721691_x_at) / Fold change /veh CYB561 (11721691_x_at) / RFU ANKRD19P (11752326_a_at) / Fold change /veh ANKRD19P (11752326_a_at) / RFU OR2T12 /// OR2T33 /// OR2T8 (11738714_s_at) / Fold change /veh OR2T12 /// OR2T33 /// OR2T8 (11738714_s_at) / RFU VCAN (11748164_a_at) / Fold change /veh VCAN (11748164_a_at) / RFU JSRP1 (11732532_at) / Fold change /veh JSRP1 (11732532_at) / RFU KRTAP10-11 (11738290_x_at) / Fold change /veh KRTAP10-11 (11738290_x_at) / RFU MYO3A (11730013_a_at) / Fold change /veh MYO3A (11730013_a_at) / RFU EBF3 (11725865_a_at) / Fold change /veh EBF3 (11725865_a_at) / RFU CAMK2N1 (11719241_x_at) / Fold change /veh CAMK2N1 (11719241_x_at) / RFU C5orf56 (11738088_a_at) / Fold change /veh C5orf56 (11738088_a_at) / RFU OLFML3 (11715873_a_at) / Fold change /veh OLFML3 (11715873_a_at) / RFU LOC100653217 /// NTM (11731650_a_at) / Fold change /veh LOC100653217 /// NTM (11731650_a_at) / RFU MAPK11 (11762145_a_at) / Fold change /veh MAPK11 (11762145_a_at) / RFU FIZ1 (11724087_x_at) / Fold change /veh FIZ1 (11724087_x_at) / RFU OASL (11726364_x_at) / Fold change /veh OASL (11726364_x_at) / RFU SOX15 (11748057_x_at) / Fold change /veh SOX15 (11748057_x_at) / RFU CD79A (11719716_a_at) / Fold change /veh CD79A (11719716_a_at) / RFU HIST1H1D (11736915_at) / Fold change /veh HIST1H1D (11736915_at) / RFU CASKIN2 (11723855_a_at) / Fold change /veh CASKIN2 (11723855_a_at) / RFU LOC730098 (11760151_x_at) / Fold change /veh LOC730098 (11760151_x_at) / RFU OR4N2 (11742367_at) / Fold change /veh OR4N2 (11742367_at) / RFU PRRT2 (11749266_a_at) / Fold change /veh PRRT2 (11749266_a_at) / RFU SNX32 (11753110_a_at) / Fold change /veh SNX32 (11753110_a_at) / RFU CDHR5 (11726645_a_at) / Fold change /veh CDHR5 (11726645_a_at) / RFU RCAN1 (11760418_a_at) / Fold change /veh RCAN1 (11760418_a_at) / RFU FAM167A (11723789_a_at) / Fold change /veh FAM167A (11723789_a_at) / RFU FAM26E (11764081_at) / Fold change /veh FAM26E (11764081_at) / RFU ISYNA1 (11749810_s_at) / Fold change /veh ISYNA1 (11749810_s_at) / RFU ACY1 (11761880_at) / Fold change /veh ACY1 (11761880_at) / RFU 11764098_at / Fold change /veh 11764098_at / RFU SAMD14 (11745864_x_at) / Fold change /veh SAMD14 (11745864_x_at) / RFU NPB (11741838_a_at) / Fold change /veh NPB (11741838_a_at) / RFU TMPRSS6 (11731388_a_at) / Fold change /veh TMPRSS6 (11731388_a_at) / RFU KRTAP10-2 (11738614_at) / Fold change /veh KRTAP10-2 (11738614_at) / RFU ARHGAP8 /// PRR5-ARHGAP8 (11727945_x_at) / Fold change /veh ARHGAP8 /// PRR5-ARHGAP8 (11727945_x_at) / RFU KRTAP5-7 /// NADSYN1 (11734609_at) / Fold change /veh KRTAP5-7 /// NADSYN1 (11734609_at) / RFU RASL12 (11751679_a_at) / Fold change /veh RASL12 (11751679_a_at) / RFU CDKN2B (11736163_a_at) / Fold change /veh CDKN2B (11736163_a_at) / RFU PRF1 (11729649_at) / Fold change /veh PRF1 (11729649_at) / RFU, ZNF638 /// ZNF638-IT1 / Fold change vs veh, ZNF638 /// ZNF638-IT1 / RFU, PANK3 / Fold change vs veh, PANK3 / RFU, SH3YL1 / Fold change vs veh, SH3YL1 / RFU, ZEB2 / Fold change vs veh, ZEB2 / RFU, NRIP1 / Fold change vs veh, NRIP1 / RFU, PTTG1IP / Fold change vs veh, PTTG1IP / RFU, CAPN2 / Fold change vs veh, CAPN2 / RFU, MED14 / Fold change vs veh, MED14 / RFU, SNORA58 / Fold change vs veh, SNORA58 / RFU, C1orf63 / Fold change vs veh, C1orf63 / RFU, LRRFIP1 / Fold change vs veh, LRRFIP1 / RFU, NDUFAF7 / Fold change vs veh, NDUFAF7 / RFU, SLC12A2 / Fold change vs veh, SLC12A2 / RFU, IBTK / Fold change vs veh, IBTK / RFU, ESF1 / Fold change vs veh, ESF1 / Fold change vs veh, TMEM50B / RFU, TAOK1 / Fold change vs veh, TAOK1 / RFU, ACBD3 / Fold change vs veh, ACBD3 / RFU, TMA16 / Fold change vs veh, TMA16 / RFU, RWDD3 / Fold change vs veh, RWDD3 / RFU, BCAT1 / Fold change vs veh, BCAT1 / RFU, EDEM3 / Fold change vs veh, EDEM3 / RFU, TMEM33 / Fold change vs veh, TMEM33 / RFU, WDR75 / Fold change vs veh, WDR75 / RFU, AHCTF1 / Fold change vs veh, AHCTF1 / RFU, TFRC / Fold change vs veh, TFRC / RFU, ZDHHC17 / Fold change vs veh, ZDHHC17 / RFU, NOM1 / Fold change vs veh, NOM1 / RFU, ARL8B / Fold change vs veh, ARL8B / RFU, ZBTB11 / Fold change vs veh, ZBTB11 / RFU, TAMM41 / Fold change vs veh, TAMM41 / RFU, KIAA1704 /// LOC100996395 / Fold change vs veh, KIAA1704 /// LOC100996395 / RFU, ING1 / Fold change vs veh, ING1 / RFU, TRMT61B / Fold change vs veh, TRMT61B / RFU, FUBP3 / Fold change vs veh, FUBP3 / RFU, TP53 / Fold change vs veh, TP53 / RFU, TNKS2 / Fold change vs veh, TNKS2 / RFU, ZFP14 / Fold change vs veh, ZFP14 / RFU, ACTR2 / Fold change vs veh, ACTR2 / RFU, PPP3R1 / Fold change vs veh, PPP3R1 / RFU, PIK3R1 / Fold change vs veh, PIK3R1 / RFU, HNRNPA1 / Fold change vs veh, HNRNPA1 / RFU, RNF170 / Fold change vs veh, RNF170 / RFU, ZNF28 / Fold change vs veh, ZNF28 / RFU, RNGTT / Fold change vs veh, RNGTT / RFU, OGT / Fold change vs veh, OGT / RFU, BRD1 / Fold change vs veh, BRD1 / RFU, MARS / Fold change vs veh, MARS / RFU, ZNF655 / Fold change vs veh, ZNF655 / RFU, FAHD1 / Fold change vs veh, FAHD1 / RFU, BDP1 / Fold change vs veh, BDP1 / RFU, LRRCC1 / Fold change vs veh, LRRCC1 / RFU, ARID1A / Fold change vs veh, ARID1A / RFU, ZNF146 / Fold change vs veh, ZNF146 / RFU, ZNF330 / Fold change vs veh, ZNF330 / RFU, GPN3 / Fold change vs veh, GPN3 / RFU, C9orf123 / Fold change vs veh, C9orf123 / RFU, N4BP2L2 / Fold change vs veh, N4BP2L2 / RFU, ARFIP1 / Fold change vs veh, ARFIP1 / RFU, FAM179B / Fold change vs veh, FAM179B / RFU, BCL10 / Fold change vs veh, BCL10 / RFU, UHRF1BP1L / Fold change vs veh, UHRF1BP1L / RFU, BET1 / Fold change vs veh, BET1 / RFU, CNOT2 / Fold change vs veh, CNOT2 / RFU, ZNF268 / Fold change vs veh, ZNF268 / Fold change vs veh, ZNF507 / RFU, DGCR2 / Fold change vs veh, DGCR2 / RFU, WDSUB1 / Fold change vs veh, WDSUB1 / Fold change vs veh, HSP90B1 /// MIR3652 / RFU, ADSS / Fold change vs veh, ADSS / RFU, GK / Fold change vs veh, GK / RFU, ZNF148 / Fold change vs veh, ZNF148 / RFU, TAF9 / Fold change vs veh, TAF9 / RFU, SLC1A5 / Fold change vs veh, SLC1A5 / RFU, SLMO2 / Fold change vs veh, SLMO2 / RFU, ABCC4 / Fold change vs veh, ABCC4 / RFU, LOC101060439 /// RAP1B / Fold change vs veh, LOC101060439 /// RAP1B / RFU, RFX7 / Fold change vs veh, RFX7 / RFU, GTPBP10 / Fold change vs veh, GTPBP10 / RFU, CNEP1R1 / Fold change vs veh, CNEP1R1 / RFU, BIVM-ERCC5 /// ERCC5 / Fold change vs veh, BIVM-ERCC5 /// ERCC5 / RFU, ILF3 / Fold change vs veh, ILF3 / RFU 11762660_at / Fold change /veh 11762660_at / RFU VCAN (11757783_s_at) / Fold change /veh VCAN (11757783_s_at) / RFU DDX43 (11728927_at) / Fold change /veh DDX43 (11728927_at) / RFU KRT8 (11758188_x_at) / Fold change /veh KRT8 (11758188_x_at) / RFU NKD1 (11759106_at) / Fold change /veh NKD1 (11759106_at) / RFU SRD5A1 (11742802_a_at) / Fold change /veh SRD5A1 (11742802_a_at) / RFU TPSAB1 /// TPSB2 (11721975_s_at) / Fold change /veh TPSAB1 /// TPSB2 (11721975_s_at) / RFU GSTM3 (11746129_a_at) / Fold change /veh GSTM3 (11746129_a_at) / RFU IL23R (11737362_x_at) / Fold change /veh IL23R (11737362_x_at) / RFU TMEM51 (11727254_a_at) / Fold change /veh TMEM51 (11727254_a_at) / RFU PIWIL2 (11732686_x_at) / Fold change /veh PIWIL2 (11732686_x_at) / RFU ORM1 (11744905_x_at) / Fold change /veh ORM1 (11744905_x_at) / RFU CCDC152 (11743942_at) / Fold change /veh CCDC152 (11743942_at) / RFU ECM1 (11717891_a_at) / Fold change /veh ECM1 (11717891_a_at) / RFU IL23R (11748794_a_at) / Fold change /veh IL23R (11748794_a_at) / RFU TNFAIP8L3 (11732012_x_at) / Fold change /veh TNFAIP8L3 (11732012_x_at) / RFU MBOAT4 (11741988_at) / Fold change /veh MBOAT4 (11741988_at) / RFU 11764193_at / Fold change /veh 11764193_at / RFU TMEM53 (11763286_at) / Fold change /veh TMEM53 (11763286_at) / RFU MAGEB2 (11727129_at) / Fold change /veh MAGEB2 (11727129_at) / RFU TMEM200A (11744735_a_at) / Fold change /veh TMEM200A (11744735_a_at) / RFU CCDC152 (11751479_a_at) / Fold change /veh CCDC152 (11751479_a_at) / RFU FAM211A (11726209_a_at) / Fold change /veh FAM211A (11726209_a_at) / RFU RGS16 (11746705_a_at) / Fold change /veh RGS16 (11746705_a_at) / RFU VCAN (11755009_s_at) / Fold change /veh VCAN (11755009_s_at) / RFU RHOB (11743442_s_at) / Fold change /veh RHOB (11743442_s_at) / RFU RGS16 (11720943_a_at) / Fold change /veh RGS16 (11720943_a_at) / RFU RGS16 (11720944_at) / Fold change /veh RGS16 (11720944_at) / RFU, VPS4B / Fold change vs veh, VPS4B / RFU, CREB1 / Fold change vs veh, CREB1 / RFU, DNAJC13 / Fold change vs veh, DNAJC13 / RFU, GNAQ / Fold change vs veh, GNAQ / RFU, CDK5R1 / Fold change vs veh, CDK5R1 / RFU, ZRANB3 / Fold change vs veh, ZRANB3 / RFU, CUL4A / Fold change vs veh, CUL4A / RFU, CCNY / Fold change vs veh, CCNY / RFU, UFL1 / Fold change vs veh, UFL1 / RFU, COG3 / Fold change vs veh, COG3 / RFU, DIAPH2 / Fold change vs veh, DIAPH2 / RFU, SKA2 / Fold change vs veh, SKA2 / RFU, AFF3 / Fold change vs veh, AFF3 / RFU, LMF1 / Fold change vs veh, LMF1 / RFU, IPO11 / Fold change vs veh, IPO11 / RFU, DFFB / Fold change vs veh, DFFB / RFU, FOXP1 / Fold change vs veh, FOXP1 / RFU, CARD8 / Fold change vs veh, CARD8 / RFU, STRN3 / Fold change vs veh, STRN3 / RFU, ADK / Fold change vs veh, ADK / RFU, RASSF2 / Fold change vs veh, RASSF2 / RFU, WIPF1 / Fold change vs veh, WIPF1 / RFU, LARP1B / Fold change vs veh, LARP1B / RFU, RASA1 / Fold change vs veh, RASA1 / RFU, RB1 / Fold change vs veh, RB1 / RFU, PPFIA1 / Fold change vs veh, PPFIA1 / RFU, MAT2A / Fold change vs veh, MAT2A / RFU, CCT5 / Fold change vs veh, CCT5 / RFU, WDR92 / Fold change vs veh, WDR92 / RFU, CUX1 / Fold change vs veh, CUX1 / RFU, TTC7A / Fold change vs veh, TTC7A / RFU, TMEM135 / Fold change vs veh, TMEM135 / RFU, DEPTOR / Fold change vs veh, DEPTOR / RFU, CPM / Fold change vs veh, CPM / RFU, DNAJB6 / Fold change vs veh, DNAJB6 / RFU, CACNA2D3 / Fold change vs veh, CACNA2D3 / RFU, DTX4 / Fold change vs veh, DTX4 / RFU, TFCP2 / Fold change vs veh, TFCP2 / RFU, GMCL1 /// GMCL1P1 / Fold change vs veh, GMCL1 /// GMCL1P1 / RFU, AEBP2 / Fold change vs veh, AEBP2 / RFU, SNHG1 /// SNORD22 /// SNORD25 /// SNORD26 /// SNORD27 /// SNORD28 /// SNORD29 /// SNORD31 / Fold change vs veh, SNHG1 /// SNORD22 /// SNORD25 /// SNORD26 /// SNORD27 /// SNORD28 /// SNORD29 /// SNORD31 / Fold change (Aza/veh), C12orf56 (ProbeSet 11735607_a_at) / Fold change (ACY-1035/veh), C12orf56 (ProbeSet 11735607_a_at) / Fold change (Aza/veh), FGFR1OP (ProbeSet 11751329_s_at) / Fold change (ACY-1035/veh), FGFR1OP (ProbeSet 11751329_s_at) / Fold change (Aza/veh), VPS36 (ProbeSet 11739960_a_at) / Fold change (ACY-1035/veh), VPS36 (ProbeSet 11739960_a_at) / RFU SYPL1 (11715823_x_at) / Fold change /veh SYPL1 (11715823_x_at) / RFU IGFBP7 (11715501_s_at) / Fold change /veh IGFBP7 (11715501_s_at) / RFU REEP3 (11722064_at) / Fold change /veh REEP3 (11722064_at) / RFU IGLL1 (11728026_x_at) / Fold change /veh IGLL1 (11728026_x_at): dose or concentration left out as unconfirmed
Conditions: MV-4-11 cells, 48 hours

Nc1ccc(-c2cccs2)cc1NC(=O)c1ccc2c(c1)cc(C1CC1)n2CCN1CCOCC1 [ACY-1035]
RFU 11764193_at: 28.66 RFU
